# Reference: ChEMBL document CHEMBL4387784, “Triterpenoids from Ganoderma gibbosum: A Class of Sensitizers of FLC-Resistant Candida albicans to Fluconazole” (2019)
# Active and inactive are the calls of the source. The calls are words filed in the database; no cut-off is given here.
# Tested on: Candida albicans
# Assay: Chemo-sensitization of fluconazole antifungal activity against FLC-resistant Candida albicans assessed as inhibition of microbial growth at 200 ug/mL in presence of fluconazole incubated for 24 hrs by microbroth dilution assay relative to untreated control
# Format: functional, organism-based
# Settings: not given
row,SMILES,growth inhibition (GI)
1,C/C(=C\C(=O)C[C@H](C)C(=O)O)[C@H]1C[C@@H](O)[C@@]2(C)C3=C(C(=O)[C@H](O)[C@]12C)[C@@]1(C)CCC(=O)C(C)(C)[C@@H]1CC3=O,Active
2,C/C(=C\C(=O)C[C@H](C)C(=O)O)[C@H]1C[C@@H](O)[C@@]2(C)C3=C(C=C[C@]12C)[C@@]1(C)CCC(=O)C(C)(C)[C@@H]1CC3=O,Active
3,C/C(=C\[C@@H]1C[C@H](C)C(=O)O1)[C@H]1C[C@@H](O)[C@]2(C)[C@]1(C)C(=O)C=C1[C@@]3(C)CCC(=O)C(C)(C)[C@@H]3C[C@H]3O[C@@]132,Active
4,C[C@H]1C[C@@]2(C[C@](C)(O)C3=C[C@@H](O)[C@@]4(C)C5=C(C(=O)[C@H](O2)[C@]34C)[C@@]2(C)CCC(=O)C(C)(C)[C@@H]2CC5=O)OC1=O,Active
5,C/C(=C\C(=O)C[C@H](C)C(=O)O)[C@H]1C[C@H](O)[C@@]2(C)[C@]34O[C@H]3C[C@H]3C(C)(C)C(=O)CC[C@]3(C)C4=CC(=O)[C@]12C,Active
6,C=C(C)[C@@H]1C[C@H]2O[C@@]23C(=CC(=O)[C@]2(C)[C@@H](/C(C)=C/[C@H]4C[C@H](C)C(=O)O4)C[C@H](O)[C@]23C)[C@@]1(C)CCC(=O)OC,Active
7,C=C(C)[C@@H]1C[C@H]2O[C@@]23C(=CC(=O)[C@]2(C)[C@@H](/C(C)=C/[C@H]4C[C@H](C)C(=O)O4)C[C@H](O)[C@]23C)[C@@]1(C)CCC(=O)O,Active
8,C[C@@H](CC(=O)C[C@](C)(O)C1=C[C@H](O)[C@]2(C)[C@]1(C)C(=O)C=C1[C@]23O[C@H]3C[C@H]2C(C)(C)C(=O)CC[C@]12C)C(=O)O,Active
9,C[C@@H](CC(=O)C[C@](C)(O)C1=C[C@@H](O)[C@]2(C)[C@]1(C)C(=O)C=C1[C@]23O[C@H]3C[C@H]2C(C)(C)C(=O)CC[C@]12C)C(=O)O,Active
10,C/C(=C\[C@H]1C[C@H](C)C(=O)O1)[C@H]1C[C@@H](O)[C@]2(C)[C@]1(C)C(=O)C=C1[C@@]3(C)CCC(=O)C(C)(C)[C@@H]3C[C@H]3O[C@@]132,Active

# Tested on: Candida albicans
# Assay: Antifungal activity against normal Candida albicans assessed as inhibition of microbial growth at 200 ug/mL incubated for 24 hrs by microbroth dilution assay relative to untreated control
# Format: functional
# Settings: read-out: GI
row,SMILES,inhibition of growth at 200 µg/mL [%]
1,C/C(=C\C(=O)C[C@H](C)C(=O)O)[C@H]1C[C@@H](O)[C@@]2(C)C3=C(C(=O)[C@H](O)[C@]12C)[C@@]1(C)CCC(=O)C(C)(C)[C@@H]1CC3=O,< 50
2,C/C(=C\C(=O)C[C@H](C)C(=O)O)[C@H]1C[C@@H](O)[C@@]2(C)C3=C(C=C[C@]12C)[C@@]1(C)CCC(=O)C(C)(C)[C@@H]1CC3=O,< 50
3,C/C(=C\[C@@H]1C[C@H](C)C(=O)O1)[C@H]1C[C@@H](O)[C@]2(C)[C@]1(C)C(=O)C=C1[C@@]3(C)CCC(=O)C(C)(C)[C@@H]3C[C@H]3O[C@@]132,< 50
4,C[C@H]1C[C@@]2(C[C@](C)(O)C3=C[C@@H](O)[C@@]4(C)C5=C(C(=O)[C@H](O2)[C@]34C)[C@@]2(C)CCC(=O)C(C)(C)[C@@H]2CC5=O)OC1=O,< 50
5,C/C(=C\C(=O)C[C@H](C)C(=O)O)[C@H]1C[C@H](O)[C@@]2(C)[C@]34O[C@H]3C[C@H]3C(C)(C)C(=O)CC[C@]3(C)C4=CC(=O)[C@]12C,< 50
6,C=C(C)[C@@H]1C[C@H]2O[C@@]23C(=CC(=O)[C@]2(C)[C@@H](/C(C)=C/[C@H]4C[C@H](C)C(=O)O4)C[C@H](O)[C@]23C)[C@@]1(C)CCC(=O)OC,< 50
7,C=C(C)[C@@H]1C[C@H]2O[C@@]23C(=CC(=O)[C@]2(C)[C@@H](/C(C)=C/[C@H]4C[C@H](C)C(=O)O4)C[C@H](O)[C@]23C)[C@@]1(C)CCC(=O)O,< 50
8,C[C@@H](CC(=O)C[C@](C)(O)C1=C[C@H](O)[C@]2(C)[C@]1(C)C(=O)C=C1[C@]23O[C@H]3C[C@H]2C(C)(C)C(=O)CC[C@]12C)C(=O)O,< 50
9,C[C@@H](CC(=O)C[C@](C)(O)C1=C[C@@H](O)[C@]2(C)[C@]1(C)C(=O)C=C1[C@]23O[C@H]3C[C@H]2C(C)(C)C(=O)CC[C@]12C)C(=O)O,< 50
10,C/C(=C\[C@H]1C[C@H](C)C(=O)O1)[C@H]1C[C@@H](O)[C@]2(C)[C@]1(C)C(=O)C=C1[C@@]3(C)CCC(=O)C(C)(C)[C@@H]3C[C@H]3O[C@@]132,< 50

# Tested on: Candida albicans
# Assay: Antifungal activity against FLC-resistant Candida albicans assessed as inhibition of microbial growth incubated for 24 hrs by microbroth dilution assay relative to untreated control
# Format: functional
# Settings: not given
row,SMILES,MIC50 [µg/mL]
1,OC(Cn1cncn1)(Cn1cncn1)c1ccc(F)cc1F [FLUCONAZOLE],6.3

# Tested on: Candida albicans
# Assay: Chemo-sensitization of fluconazole antifungal activity against FLC-resistant Candida albicans assessed as inhibition of microbial growth in presence of fluconazole at 1:1 ratio of compound to fluconazole incubated for 24 hrs by microbroth dilution assay relative to untreated control
# Format: functional
# Settings: not given
row,SMILES,MIC50 [µg/mL]
1,C/C(=C\C(=O)C[C@H](C)C(=O)O)[C@H]1C[C@@H](O)[C@@]2(C)C3=C(C(=O)[C@H](O)[C@]12C)[C@@]1(C)CCC(=O)C(C)(C)[C@@H]1CC3=O,4.4
2,C/C(=C\[C@@H]1C[C@H](C)C(=O)O1)[C@H]1C[C@@H](O)[C@]2(C)[C@]1(C)C(=O)C=C1[C@@]3(C)CCC(=O)C(C)(C)[C@@H]3C[C@H]3O[C@@]132,37.8
3,C[C@H]1C[C@@]2(C[C@](C)(O)C3=C[C@@H](O)[C@@]4(C)C5=C(C(=O)[C@H](O2)[C@]34C)[C@@]2(C)CCC(=O)C(C)(C)[C@@H]2CC5=O)OC1=O,78
4,C=C(C)[C@@H]1C[C@H]2O[C@@]23C(=CC(=O)[C@]2(C)[C@@H](/C(C)=C/[C@H]4C[C@H](C)C(=O)O4)C[C@H](O)[C@]23C)[C@@]1(C)CCC(=O)OC,129
5,C=C(C)[C@@H]1C[C@H]2O[C@@]23C(=CC(=O)[C@]2(C)[C@@H](/C(C)=C/[C@H]4C[C@H](C)C(=O)O4)C[C@H](O)[C@]23C)[C@@]1(C)CCC(=O)O,29.4
6,C[C@@H](CC(=O)C[C@](C)(O)C1=C[C@H](O)[C@]2(C)[C@]1(C)C(=O)C=C1[C@]23O[C@H]3C[C@H]2C(C)(C)C(=O)CC[C@]12C)C(=O)O,37.7
7,C[C@@H](CC(=O)C[C@](C)(O)C1=C[C@@H](O)[C@]2(C)[C@]1(C)C(=O)C=C1[C@]23O[C@H]3C[C@H]2C(C)(C)C(=O)CC[C@]12C)C(=O)O,29
8,C/C(=C\[C@H]1C[C@H](C)C(=O)O1)[C@H]1C[C@@H](O)[C@]2(C)[C@]1(C)C(=O)C=C1[C@@]3(C)CCC(=O)C(C)(C)[C@@H]3C[C@H]3O[C@@]132,5
